Results: US8450357B2, “Compositions comprising an aryl pyrazole and/or a formamidine, methods and uses thereof” (Merial Limited, priority 2008, dated 2013)
Where two headings read alike, the source gives them in different places.

Tests used:
Assay type in all cases: in vivo
[1] = system: ticks; test: Efficacy of combination of fipronil with amitraz against ticks on dogs; conditions: 10 mg/kg BW of actives, topical
Procedure: (§1) A fipronil formulation (commercial product) was prepared and stored separately from amitraz. Amitraz was formulated with the same carrier. Both parts, fipronil and amitraz in solvent(s) were stored separately and applied simultaneously. Amounts applied were calculated to keep dose at 10% (w/v) each in final formulation and 10 mg/kg BW of actives in amount applied.
In brief, treatment was applied by parting the hair on the midline of the neck, between the base of the skull and the shoulder blades, and applying the formulation directly onto the skin.

[2] = system: fleas; test: Efficacy of combination of fipronil and amitraz against fleas on dogs; conditions: topical
Procedure: as §1
The amitraz and fipronil composition described in Example 10 were used in this study. […] Treatment was applied by parting the hair on the midline of the neck, between the base of the skull and the shoulder blades, and applying the formulation directly onto the skin.

[3] = system: adult Rhipicephalus sanguineus ticks; test: whole plant or invertebrate; conditions: for mortality at 6.25 ppm / mortality at 12.5 ppm / mortality at 25 ppm / mortality at 0.0016 ppm / mortality at 0.006 ppm / mortality at 0.025 ppm / mortality at 0.1 ppm / mortality at 0.4 ppm / mortality at 1.6 ppm: Rhipicephalus sanguineus; for Synergistic Ratio (EC50): EC50 alone divided by EC50 with Amitraz (12.5 ppm); for Synergistic Ratio (EC90): EC90 alone divided by EC90 with Amitraz (12.5 ppm)
From the text: Dosages were serially diluted using this same formulation.

[4] = system: adult Rhipicephalus sanguineus; test: Tick motility petri dish assay with imaging system, amitraz and fipronil; conditions: for Geometric Mean of movement values for stimulated ticks: amitraz 0.32 ug/cm^2, fipronil serial dilutions 1.3-0.005 ug/cm^2; for motility of ticks over time: compound alone, compared to solvent control treated ticks
From the text: An imaging system was used for the automated analysis of tick motility in response to amitraz and fipronil treatments to remove the subjective interpretation of manual test evaluation. The study was designed to evaluate the affect of amitraz and fipronil alone and in combination, as compared to a control, on the motility of ticks over time.
The motility of adult Rhipicephalus sanguineus was compared for amitraz-only, fipronil-only and the combination of fipronil and amitraz in a petri dish assay using the imaging system. The assay was run using a fixed dilution of amitraz (0.32 ug/cm^2), with serial dilutions of fipronil (1.3, 0.33, 0.08, 0.02, or 0.005 ug/cm^2) alone and in combination with the fixed dilution of amitraz. Six independent replications were conducted.
A plate holding four petri dishes was custom made for the imaging system. At each time point the plate holding four petri dishes was placed on the imaging system and evaluated for motility. The set up of the plate for each evaluation is illustrated below in Table 21.
For Dish A1, a volume of 625 μL of ethanol was used to treat the tops and 625 μL to treat the bottoms of the petri dish. All solutions were formulated in 100% ethanol. For Dish A2, a volume of 125 μL of the 25 ppm amitraz solution was used to treat the tops and 125 μL to treat the bottoms of the petri dish. For Dish B1, the top and bottom portions of the petri dishes were each treated with 500 μL of the 25 ppm solution of fipronil (serially diluted for each Plate 1-5) and 125 μL of the 25 ppm solution of amitraz. And for Dish B2, each of the top and bottom portions of the petri dishes were treated with 500 μL of the 25 ppm solution of fipronil (serially diluted for each Plate 1-5). After application of the corresponding solution to the petri dishes, the petri dishes were left open under a fan and allowed to dry for 1 hour. After drying, the dishes were infested with 10 adult Rhipicephalus sanguineus (supplied by Ecto Services, Inc. Henderson, N.C.). The ticks were left undisturbed for 1 hour before evaluation in the imaging system. Between evaluations ticks were maintained at approximately 21° C. and 60% RH.
After the initial hour, each Plate 1-5 was sequentially placed into the imaging system for evaluation. Image processing calculates the change in movement of the ticks between each image. The value generated is equal to the movement in each petri dish during the image time. The ticks in each individual petri dish were then stimulated to move by breathing/exhaling into the plate. After stimulation, the plates were placed back into the imaging system for another evaluation to determine if the treatment affected the tick's ability to move. Image capture was repeated as in the pre-stimulated evaluation.
Evaluations were made at 1, 4, 18, and 24 hours post infest (hpi) for 3 trials. For 3 trials the 4 hour evaluation was not done and for 3 trials the third evaluation was done at 21 to 22 hours. Raw data values were exported from the imaging system and comparative analysis of treatments over time was conducted.

[5] = 6 h, read-out: 6 hour % Mortality Rep 1
[6] = 6 h, read-out: 6 hour % Mortality Rep 2
[7] = 6 h, read-out: 6 hour Avg. % Mortality
[8] = 24 h, read-out: 24 hour % Mortality Rep 1
[9] = 24 h, read-out: 24 hour % Mortality Rep 2
[10] = 24 h, read-out: 24 hour Avg. % Mortality
[11] = 48 h, read-out: 48 hour % Mortality Rep 1
[12] = 48 h, read-out: 48 hour % Mortality Rep 2
[13] = 48 h, read-out: 48 hour Avg. % Mortality

Cc1ccc(/N=C/N(C)/C=N/c2ccc(C)cc2C)c(C)c1 [Amitraz, amitraz]
Efficacy against ticks ([1]; 2 days after treatment): 95.1%
Efficacy against ticks ([1]; 16 days after treatment): 96.9%
Efficacy against ticks ([1]; 23 days after treatment): 95.0%
Efficacy against ticks ([1]; 30 days after treatment): 64.9%
Efficacy against ticks ([1]; 37 days after treatment): 56.2%
Efficacy against ticks ([1]; 44 days after treatment): 28.3%
Efficacy against fleas ([2]; 2 days after treatment): 14.3%
Efficacy against fleas ([2]; 16 days after treatment): 12.4%
Efficacy against fleas ([2]; 23 days after treatment): 16.3%
Efficacy against fleas ([2]; 30 days after treatment): 20.2%
Efficacy against fleas ([2]; 37 days after treatment): 32.5%
Efficacy against fleas ([2]; 44 days after treatment): 25.9%
mortality at 6.25 ppm [3, 5]: 0%
mortality at 12.5 ppm [3, 5]: 0%
mortality at 25 ppm [3, 5]: 0%
mortality at 6.25 ppm [3, 6]: 0%
mortality at 12.5 ppm [3, 6]: 0%
mortality at 25 ppm [3, 6]: 0%
mortality at 6.25 ppm [3, 7]: 0%
mortality at 12.5 ppm [3, 7]: 0%
mortality at 25 ppm [3, 7]: 0%
mortality at 6.25 ppm [3, 8]: 0%
mortality at 12.5 ppm [3, 8]: 0%
mortality at 25 ppm [3, 8]: 0%
mortality at 6.25 ppm [3, 9]: 0%
mortality at 12.5 ppm [3, 9]: 0%
mortality at 25 ppm [3, 9]: 0%
mortality at 6.25 ppm [3, 10]: 0%
mortality at 12.5 ppm [3, 10]: 0%
mortality at 25 ppm [3, 10]: 0%
mortality at 6.25 ppm [3, 11]: 0%
mortality at 12.5 ppm [3, 11]: 0%
mortality at 25 ppm [3, 11]: 10%
mortality at 6.25 ppm [3, 12]: 0%
mortality at 12.5 ppm [3, 12]: 0%
mortality at 25 ppm [3, 12]: 10%
mortality at 6.25 ppm [3, 13]: 0%
mortality at 12.5 ppm [3, 13]: 0%
mortality at 25 ppm [3, 13]: 10%
Geometric Mean of movement values for stimulated ticks ([4]; 21-22 hours post infestation): 30,300
Geometric Mean of movement values for stimulated ticks ([4]; 1 hours post infestation): 56,900
Geometric Mean of movement values for stimulated ticks ([4]; 4 hours post infestation): 44,300
Geometric Mean of movement values for stimulated ticks ([4]; 18 hours post infestation): 33,200
Geometric Mean of movement values for stimulated ticks ([4]; 24 hours post infestation): 34,300
motility of ticks over time [4]: increase in motility

N#Cc1nn(-c2c(Cl)cc(C(F)(F)F)cc2Cl)c(N)c1[S+]([O-])C(F)(F)F (stereo not drawn) [fipronil, 5-amino-3-cyano-1-(2,6-dichloro-4-trifluoromethylphenyl)-4-trifluoromethylsulfinylpyrazole]
Efficacy against ticks ([1]; 2 days after treatment): 90.9%
Efficacy against ticks ([1]; 16 days after treatment): 100%
Efficacy against ticks ([1]; 23 days after treatment): 99.3%
Efficacy against ticks ([1]; 30 days after treatment): 53.9%
Efficacy against ticks ([1]; 37 days after treatment): 43.9%
Efficacy against ticks ([1]; 44 days after treatment): 37.9%
Efficacy against fleas ([2]; 2 days after treatment): 100%
Efficacy against fleas ([2]; 16 days after treatment): 100%
Efficacy against fleas ([2]; 23 days after treatment): 100%
Efficacy against fleas ([2]; 30 days after treatment): 94.4%
Efficacy against fleas ([2]; 37 days after treatment): 63.4%
Efficacy against fleas ([2]; 44 days after treatment): 55.9%
Efficacy against fleas ([2]; 51 days after treatment): 74.7%
Synergistic Ratio (EC50) ([3]; 6 hour Eval): 14.7
Synergistic Ratio (EC90) ([3]; 6 hour Eval): >6.76
Synergistic Ratio (EC50) ([3]; 24 hour Eval): 156.8
Synergistic Ratio (EC90) ([3]; 24 hour Eval): >156
Synergistic Ratio (EC50) ([3]; 48 hour Eval): 56.4
Synergistic Ratio (EC90) ([3]; 48 hour Eval): 32.3
mortality at 0.0016 ppm [3, 5]: 0%
mortality at 0.006 ppm [3, 5]: 0%
mortality at 0.025 ppm [3, 5]: 0%
mortality at 0.1 ppm [3, 5]: 0%
mortality at 0.4 ppm [3, 5]: 0%
mortality at 1.6 ppm [3, 5]: 0%
mortality at 6.25 ppm [3, 5]: 0%
mortality at 25 ppm [3, 5]: 40%
mortality at 0.0016 ppm [3, 6]: 0%
mortality at 0.006 ppm [3, 6]: 0%
mortality at 0.025 ppm [3, 6]: 0%
mortality at 0.1 ppm [3, 6]: 0%
mortality at 0.4 ppm [3, 6]: 0%
mortality at 1.6 ppm [3, 6]: 0%
mortality at 6.25 ppm [3, 6]: 20%
mortality at 25 ppm [3, 6]: 60%
mortality at 0.0016 ppm [3, 7]: 0%
mortality at 0.006 ppm [3, 7]: 0%
mortality at 0.025 ppm [3, 7]: 0%
mortality at 0.1 ppm [3, 7]: 0%
mortality at 0.4 ppm [3, 7]: 0%
mortality at 1.6 ppm [3, 7]: 0%
mortality at 6.25 ppm [3, 7]: 10%
mortality at 25 ppm [3, 7]: 50%
mortality at 0.0016 ppm [3, 8]: 0%
mortality at 0.006 ppm [3, 8]: 0%
mortality at 0.025 ppm [3, 8]: 0%
mortality at 0.1 ppm [3, 8]: 0%
mortality at 0.4 ppm [3, 8]: 0%
mortality at 6.25 ppm [3, 8]: 90%
mortality at 25 ppm [3, 8]: 80%
mortality at 0.0016 ppm [3, 9]: 0%
mortality at 0.006 ppm [3, 9]: 0%
mortality at 0.025 ppm [3, 9]: 0%
mortality at 0.1 ppm [3, 9]: 0%
mortality at 0.4 ppm [3, 9]: 0%
mortality at 1.6 ppm [3, 9]: 40%
mortality at 6.25 ppm [3, 9]: 50%
mortality at 25 ppm [3, 9]: 90%
mortality at 0.0016 ppm [3, 10]: 0%
mortality at 0.006 ppm [3, 10]: 0%
mortality at 0.025 ppm [3, 10]: 0%
mortality at 0.1 ppm [3, 10]: 0%
mortality at 0.4 ppm [3, 10]: 0%
mortality at 1.6 ppm [3, 10]: 30%
mortality at 6.25 ppm [3, 10]: 70%
mortality at 25 ppm [3, 10]: 85%
mortality at 0.0016 ppm [3, 11]: 0%
mortality at 0.006 ppm [3, 11]: 0%
mortality at 0.025 ppm [3, 11]: 0%
mortality at 0.1 ppm [3, 11]: 0%
mortality at 0.4 ppm [3, 11]: 20%
mortality at 1.6 ppm [3, 11]: 50%
mortality at 6.25 ppm [3, 11]: 100%
mortality at 25 ppm [3, 11]: 100%
mortality at 0.0016 ppm [3, 12]: 0%
mortality at 0.006 ppm [3, 12]: 0%
mortality at 0.025 ppm [3, 12]: 0%
mortality at 0.1 ppm [3, 12]: 0%
mortality at 0.4 ppm [3, 12]: 20%
mortality at 1.6 ppm [3, 12]: 60%
mortality at 6.25 ppm [3, 12]: 100%
mortality at 25 ppm [3, 12]: 100%
mortality at 0.0016 ppm [3, 13]: 0%
mortality at 0.006 ppm [3, 13]: 0%
mortality at 0.025 ppm [3, 13]: 0%
mortality at 0.1 ppm [3, 13]: 0%
mortality at 0.4 ppm [3, 13]: 20%
mortality at 1.6 ppm [3, 13]: 55%
mortality at 6.25 ppm [3, 13]: 100%
mortality at 25 ppm [3, 13]: 100%
Geometric Mean of movement values for stimulated ticks ([4]; 21-22 hours post infestation): 21,200
Geometric Mean of movement values for stimulated ticks ([4]; 1 hours post infestation): 51,000
Geometric Mean of movement values for stimulated ticks ([4]; 4 hours post infestation): 29,000
Geometric Mean of movement values for stimulated ticks ([4]; 18 hours post infestation): 17,400
Geometric Mean of movement values for stimulated ticks ([4]; 24 hours post infestation): 19,700
motility of ticks over time [4]: reduction in motility
